What was measured:
[1] = molecular target: Vascular endothelial growth factor receptor 2 (Homo sapiens, UniProt P35968); test: Inhibition of purified recombinant VEGFR2 kinase domain (unknown origin) using biotin as substrate preincubated for 5 mins followed by substrate addition and measured after 30 to 60 mins in presence of ATP by HTRF assay
HT-29 = test: Antiproliferative activity against human HT-29 cells at 10 uM incubated for 72 hrs by MTT assay relative to control; format: functional; conditions: HT-29, 72 h
[2] = molecular target: Hepatocyte growth factor receptor (Homo sapiens, UniProt P08581); test: Inhibition of purified recombinant MET kinase domain (unknown origin) using biotin as substrate preincubated for 5 mins followed by substrate addition and measured after 30 to 60 mins in presence of ATP by HTRF assay
Sequence of Hepatocyte growth factor receptor (P08581 whole entry, the tested form may be a part): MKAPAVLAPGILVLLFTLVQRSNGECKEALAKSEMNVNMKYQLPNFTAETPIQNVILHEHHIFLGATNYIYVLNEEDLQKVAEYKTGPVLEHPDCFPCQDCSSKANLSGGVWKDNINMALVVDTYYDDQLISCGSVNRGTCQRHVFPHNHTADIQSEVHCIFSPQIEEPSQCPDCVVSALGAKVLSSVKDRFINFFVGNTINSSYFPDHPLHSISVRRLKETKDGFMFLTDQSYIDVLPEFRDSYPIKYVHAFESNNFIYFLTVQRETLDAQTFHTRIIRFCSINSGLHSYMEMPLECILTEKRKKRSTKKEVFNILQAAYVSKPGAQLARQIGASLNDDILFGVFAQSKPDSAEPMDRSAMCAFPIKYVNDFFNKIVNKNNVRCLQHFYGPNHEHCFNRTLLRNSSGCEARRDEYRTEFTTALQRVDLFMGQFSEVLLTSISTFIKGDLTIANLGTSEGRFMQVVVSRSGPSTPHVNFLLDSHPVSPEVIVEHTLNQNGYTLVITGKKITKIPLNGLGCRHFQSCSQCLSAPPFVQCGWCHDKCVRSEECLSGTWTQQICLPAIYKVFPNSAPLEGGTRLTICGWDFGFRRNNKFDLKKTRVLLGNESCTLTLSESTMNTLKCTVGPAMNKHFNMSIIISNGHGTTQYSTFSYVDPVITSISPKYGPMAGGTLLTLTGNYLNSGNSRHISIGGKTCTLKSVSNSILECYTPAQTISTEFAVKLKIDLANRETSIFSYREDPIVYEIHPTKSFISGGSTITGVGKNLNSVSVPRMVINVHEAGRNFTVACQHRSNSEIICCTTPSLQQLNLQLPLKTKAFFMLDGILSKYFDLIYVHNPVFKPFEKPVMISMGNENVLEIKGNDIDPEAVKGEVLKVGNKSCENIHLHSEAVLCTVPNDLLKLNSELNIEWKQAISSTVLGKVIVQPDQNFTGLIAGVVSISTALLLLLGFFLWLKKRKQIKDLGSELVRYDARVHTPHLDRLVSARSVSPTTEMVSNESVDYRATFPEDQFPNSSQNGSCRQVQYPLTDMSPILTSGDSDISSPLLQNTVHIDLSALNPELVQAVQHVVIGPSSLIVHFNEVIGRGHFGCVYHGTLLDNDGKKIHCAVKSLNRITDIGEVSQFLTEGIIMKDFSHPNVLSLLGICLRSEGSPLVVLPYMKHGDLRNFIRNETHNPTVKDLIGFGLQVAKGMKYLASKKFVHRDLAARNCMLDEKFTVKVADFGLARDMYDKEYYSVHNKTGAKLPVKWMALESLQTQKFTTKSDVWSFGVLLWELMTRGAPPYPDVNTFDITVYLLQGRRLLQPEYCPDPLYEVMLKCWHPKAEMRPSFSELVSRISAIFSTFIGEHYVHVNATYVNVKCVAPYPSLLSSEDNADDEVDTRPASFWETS

[3] = Antiproliferative activity against human NIH-H460 cells at 10 uM incubated for 72 hrs by MTT assay relative to control; format: functional; conditions: NIH-H460, 72 h
MKN-45 = test: Antiproliferative activity against human MKN45 cells at 10 uM incubated for 72 hrs by MTT assay relative to control; format: functional; conditions: MKN-45, 72 h
Homo sapiens = organism: Homo sapiens; test: Selectivity index, ratio of IC50 for purified recombinant VEGFR2 kinase domain (unknown origin) to IC50 for purified recombinant MET kinase domain (unknown origin)
in vitro = conditions: human, liver microsomes
[4] = Oral bioavailability in Sprague-Dawley rat at 10 mg/kg, ig measured for 15 min to 72 hrs by LC-MS/MS analysis; format: ADME, organism-based; conditions: in vivo
[5] = Mean residence time in Sprague-Dawley rat at 2.5 mg/kg, iv measured for 5 min to 72 hrs by LC-MS/MS analysis; format: ADME, organism-based; conditions: in vivo
[6] = Tmax in Sprague-Dawley rat at 10 mg/kg, ig measured for 15 min to 72 hrs by LC-MS/MS analysis; format: ADME, organism-based; conditions: in vivo, po
[7] = Half life in Sprague-Dawley rat at 10 mg/kg, ig measured for 15 min to 72 hrs by LC-MS/MS analysis; format: ADME, organism-based; conditions: in vivo, po
[8] = Tmax in Sprague-Dawley rat at 2.5 mg/kg, iv measured for 5 min to 72 hrs by LC-MS/MS analysis; format: ADME, organism-based; conditions: in vivo
[9] = Clearance in Sprague-Dawley rat at 2.5 mg/kg, iv measured for 5 min to 72 hrs by LC-MS/MS analysis; format: ADME, organism-based; conditions: in vivo
[10] = Volume of distribution in Sprague-Dawley rat at 10 mg/kg, ig measured for 15 min to 72 hrs by LC-MS/MS analysis; format: ADME, organism-based; conditions: in vivo, po
[11] = Mean residence time in Sprague-Dawley rat at 10 mg/kg, ig measured for 15 min to 72 hrs by LC-MS/MS analysis; format: ADME, organism-based; conditions: in vivo, po
[12] = Cmax in Sprague-Dawley rat at 10 mg/kg, ig measured for 15 min to 72 hrs by LC-MS/MS analysis; format: ADME, organism-based; design: dose 10 mg/kg, route intragastric; conditions: in vivo, po
[13] = Volume of distribution in Sprague-Dawley rat at 2.5 mg/kg, iv measured for 5 min to 72 hrs by LC-MS/MS analysis; format: ADME, organism-based; conditions: in vivo
[14] = Clearance in Sprague-Dawley rat at 10 mg/kg, ig measured for 15 min to 72 hrs by LC-MS/MS analysis; format: ADME, organism-based; conditions: in vivo, po
[15] = Half life in Sprague-Dawley rat at 2.5 mg/kg, iv measured for 5 min to 72 hrs by LC-MS/MS analysis; format: ADME, organism-based; conditions: in vivo
[16] = AUC (0 to infinity) in Sprague-Dawley rat at 10 mg/kg, ig measured for 15 min to 72 hrs by LC-MS/MS analysis; format: ADME, organism-based; design: dose 10 mg/kg, time infinity, route intragastric; conditions: in vivo, po
[17] = AUC (0 to infinity) in Sprague-Dawley rat at 2.5 mg/kg, iv measured for 5 min to 72 hrs by LC-MS/MS analysis; format: ADME, organism-based; design: dose 2.5 mg/kg, route intravenous, time infinity; conditions: in vivo
[18] = Cmax in Sprague-Dawley rat at 2.5 mg/kg, iv measured for 5 min to 72 hrs by LC-MS/MS analysis; format: ADME, organism-based; design: dose 2.5 mg/kg, route intravenous; conditions: in vivo
[19] = Cmax in Sprague-Dawley rat at 1.0 mg/kg, iv measured for 5 min to 72 hrs by LC-MS/MS analysis; format: ADME, organism-based; design: dose 1 mg/kg, route intravenous; conditions: in vivo
[20] = Tmax in Sprague-Dawley rat at 5.0 mg/kg, ig measured for 15 min to 72 hrs by LC-MS/MS analysis; format: ADME, organism-based; conditions: in vivo, po
[21] = Oral bioavailability in Sprague-Dawley rat at 5.0 mg/kg, ig measured for 15 min to 72 hrs by LC-MS/MS analysis; format: ADME, organism-based; conditions: in vivo
[22] = Mean residence time in Sprague-Dawley rat at 1.0 mg/kg, iv measured for 5 min to 72 hrs by LC-MS/MS analysis; format: ADME, organism-based; conditions: in vivo
[23] = AUC (0 to infinity) in Sprague-Dawley rat at 5.0 mg/kg, ig measured for 15 min to 72 hrs by LC-MS/MS analysis; format: ADME, organism-based; design: dose 5 mg/kg, time infinity, route intragastric; conditions: in vivo, po
[24] = AUC (0 to infinity) in Sprague-Dawley rat at 1.0 mg/kg, iv measured for 5 min to 72 hrs by LC-MS/MS analysis; format: ADME, organism-based; design: dose 1 mg/kg, time infinity, route intravenous; conditions: in vivo
[25] = Clearance in Sprague-Dawley rat at 5.0 mg/kg, ig measured for 15 min to 72 hrs by LC-MS/MS analysis; format: ADME, organism-based; conditions: in vivo, po
[26] = Mean residence time in Sprague-Dawley rat at 5.0 mg/kg, ig measured for 15 min to 72 hrs by LC-MS/MS analysis; format: ADME, organism-based; conditions: in vivo, po
[27] = Volume of distribution in Sprague-Dawley rat at 5.0 mg/kg, ig measured for 15 min to 72 hrs by LC-MS/MS analysis; format: ADME, organism-based; conditions: in vivo, po
[28] = Volume of distribution in Sprague-Dawley rat at 1.0 mg/kg, iv measured for 5 min to 72 hrs by LC-MS/MS analysis; format: ADME, organism-based; conditions: in vivo
[29] = Cmax in Sprague-Dawley rat at 5.0 mg/kg, ig measured for 15 min to 72 hrs by LC-MS/MS analysis; format: ADME, organism-based; design: dose 5 mg/kg, route intragastric; conditions: in vivo, po
[30] = Half life in Sprague-Dawley rat at 5.0 mg/kg, ig measured for 15 min to 72 hrs by LC-MS/MS analysis; format: ADME, organism-based; conditions: in vivo, po
[31] = Clearance in Sprague-Dawley rat at 1.0 mg/kg, iv measured for 5 min to 72 hrs by LC-MS/MS analysis; format: ADME, organism-based; conditions: in vivo
[32] = Half life in Sprague-Dawley rat at 1.0 mg/kg, iv measured for 5 min to 72 hrs by LC-MS/MS analysis; format: ADME, organism-based; conditions: in vivo

Sequence of Vascular endothelial growth factor receptor 2 (P35968 whole entry, the tested form may be a part): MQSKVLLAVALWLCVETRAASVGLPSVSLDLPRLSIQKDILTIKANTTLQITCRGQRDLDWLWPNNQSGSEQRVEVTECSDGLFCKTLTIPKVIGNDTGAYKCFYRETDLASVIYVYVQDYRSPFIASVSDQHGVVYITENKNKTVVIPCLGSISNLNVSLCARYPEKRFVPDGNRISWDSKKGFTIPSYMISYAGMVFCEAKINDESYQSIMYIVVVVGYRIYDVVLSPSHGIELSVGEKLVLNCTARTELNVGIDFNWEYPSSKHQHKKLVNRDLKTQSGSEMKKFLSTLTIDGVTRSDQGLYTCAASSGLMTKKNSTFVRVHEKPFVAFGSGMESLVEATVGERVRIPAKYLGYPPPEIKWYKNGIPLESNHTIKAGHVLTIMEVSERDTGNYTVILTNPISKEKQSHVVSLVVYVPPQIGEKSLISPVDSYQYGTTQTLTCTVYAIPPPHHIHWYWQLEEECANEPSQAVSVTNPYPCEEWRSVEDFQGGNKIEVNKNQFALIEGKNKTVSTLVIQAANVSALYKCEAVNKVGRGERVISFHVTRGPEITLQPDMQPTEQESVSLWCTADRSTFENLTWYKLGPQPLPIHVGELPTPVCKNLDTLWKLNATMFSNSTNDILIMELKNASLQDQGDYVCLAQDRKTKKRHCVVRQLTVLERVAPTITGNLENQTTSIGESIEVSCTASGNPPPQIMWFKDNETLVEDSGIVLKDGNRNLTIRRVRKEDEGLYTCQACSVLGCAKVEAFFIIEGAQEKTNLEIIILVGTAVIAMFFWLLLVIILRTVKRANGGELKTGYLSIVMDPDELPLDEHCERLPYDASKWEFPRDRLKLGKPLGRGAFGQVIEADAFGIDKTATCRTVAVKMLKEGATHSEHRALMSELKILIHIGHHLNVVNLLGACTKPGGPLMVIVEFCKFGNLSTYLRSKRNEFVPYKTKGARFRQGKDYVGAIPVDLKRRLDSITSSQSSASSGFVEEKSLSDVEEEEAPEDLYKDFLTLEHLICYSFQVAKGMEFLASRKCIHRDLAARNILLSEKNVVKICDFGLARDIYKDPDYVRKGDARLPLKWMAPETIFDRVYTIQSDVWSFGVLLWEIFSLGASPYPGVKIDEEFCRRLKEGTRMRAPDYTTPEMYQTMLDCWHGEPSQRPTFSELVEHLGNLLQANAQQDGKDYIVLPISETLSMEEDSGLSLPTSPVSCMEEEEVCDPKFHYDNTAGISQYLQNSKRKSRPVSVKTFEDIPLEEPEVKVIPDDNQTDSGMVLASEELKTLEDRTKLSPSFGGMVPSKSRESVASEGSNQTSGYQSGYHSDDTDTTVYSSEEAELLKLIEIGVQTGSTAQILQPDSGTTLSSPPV

Structure (SMILES)	IC50 [1] [µM]	inhibition at 10 µM (HT-29) [%]	IC50 [2] [µM]	inhibition at 10 µM [3] [%]	inhibition at 10 µM (MKN-45) [%]	half-life (in vitro) [h]	also measured
CCn1cc(-c2ccc(F)cc2)c(=O)c2c(Nc3ccc(Oc4ccnc(NC(=O)C5CC5)c4)c(F)c3)nccc21	1.38	15.8	0.0156	11	31.9		Ratio IC50 (Homo sapiens): 88
CC(O)C(=O)Nc1cc(Oc2ccc(Nc3nccc4[nH]cc(-c5ccc(F)cc5)c(=O)c34)cc2F)ccn1 (configuration not stated)	0.289	47.8	0.0118	56	67.3	4.15	
CC(C)(O)C(=O)Nc1cc(Oc2ccc(Nc3nccc4[nH]cc(-c5ccc(F)cc5)c(=O)c34)cc2F)ccn1	> 3	-2.9	0.035	54.3	57.8		Ratio IC50 (Homo sapiens): > 85.7
Nc1nccc(Oc2ccc(Nc3nccc4[nH]cc(-c5ccc(F)cc5)c(=O)c34)cc2F)c1Cl	0.068	56.2	0.0098	79.1	85.7	3.16	bioavailability [4]: 12%; MRT [5]: 0.3 h; Tmax [6]: 2.7 h; half-life [7]: 1 h; Tmax [8]: 1.8 min; clearance [9]: 10 mL/min/kg; Vd [10]: 7.5 L/kg; MRT [11]: 3 h; Cmax [12]: 600 ng/mL; Vd [13]: 0.4 L/kg; CL/F [14]: 83.3 mL/min/kg; half-life [15]: 0.5 h; AUC(0-inf) [16]: 2200 ng·h/mL; AUC(0-inf) [17]: 4500 ng·h/mL; Cmax [18]: 16400 ng/mL
O=C(Nc1cc(Oc2ccc(Nc3nccc4c3c(=O)c(-c3ccc(F)cc3)cn4CCO)cc2F)ccn1)C1CC1	10.5	3.5	0.0338	52.1	41.8		
O=C(CO)Nc1cc(Oc2ccc(Nc3nccc4[nH]cc(-c5ccc(F)cc5)c(=O)c34)cc2F)ccn1	0.0589	18.5	0.0099	53.6	63	7.23	
CC(C)(C)C(=O)Nc1cc(Oc2ccc(Nc3nccc4[nH]cc(-c5ccc(F)cc5)c(=O)c34)cc2F)ccn1	> 3	-45.8	0.0281	56.7	62.5		Ratio IC50 (Homo sapiens): > 107
CC(=O)Nc1cc(Oc2ccc(Nc3nccc4[nH]cc(-c5ccc(F)cc5)c(=O)c34)cc2F)ccn1	0.0381	36.8	0.0214	58.2	77.1		
CCC(=O)Nc1cc(Oc2ccc(Nc3nccc4[nH]cc(-c5ccc(F)cc5)c(=O)c34)cc2F)ccn1	0.0202	68.7	0.0047	69.7	92.1	2.72	
COc1cc2nccc(Oc3ccc(NC(=O)C4(C(=O)Nc5ccc(F)cc5)CC4)cc3)c2cc1OC [CABOZANTINIB]		29		54.8	49.1		
CCCC(=O)Nc1cc(Oc2ccc(Nc3nccc4[nH]cc(-c5ccc(F)cc5)c(=O)c34)cc2F)ccn1	0.0194	23.5	0.0148	49.7	64.6		
O=C(Nc1cc(Oc2ccc(Nc3nccc4[nH]cc(-c5ccc(F)cc5)c(=O)c34)cc2F)ccn1)C1CC1	0.0088	25.5	0.0081	54.6	81.8	13.2	Cmax [19]: 1900 ng/mL; Tmax [20]: 7.3 h; bioavailability [21]: 63%; MRT [22]: 8.5 h; AUC(0-inf) [23]: 42200 ng·h/mL; AUC(0-inf) [24]: 13500 ng·h/mL; CL/F [25]: 1.67 mL/min/kg; MRT [26]: 11.4 h; Vd [27]: 1.1 L/kg; Vd [28]: 0.7 L/kg; Cmax [29]: 2700 ng/mL; half-life [30]: 6.4 h; clearance [31]: 1.33 mL/min/kg; half-life [32]: 6.8 h
CC(C)C(=O)Nc1cc(Oc2ccc(Nc3nccc4[nH]cc(-c5ccc(F)cc5)c(=O)c34)cc2F)ccn1	0.23	83.4	0.0177	84.6	95.4		
O=C(Nc1cc(Oc2ccc(Nc3nccc4[nH]cc(-c5ccc(F)cc5)c(=O)c34)cc2F)ccn1)C1CCCCC1	> 3	8.7	0.0098	72.1	55.2	1.34	Ratio IC50 (Homo sapiens): > 306
CC(C)(O)Cn1cc(-c2ccc(F)cc2)c(=O)c2c(Nc3ccc(Oc4ccnc(NC(=O)C5CC5)c4)c(F)c3)nccc21	> 30	-2.6	0.0259	67.4	44.3		
CCCCC(=O)Nc1cc(Oc2ccc(Nc3nccc4[nH]cc(-c5ccc(F)cc5)c(=O)c34)cc2F)ccn1	0.0269	-42.2	0.0147	71.8	62.7		
O=C(Nc1cc(Oc2ccc(Nc3nccc4[nH]cc(-c5ccc(F)cc5)c(=O)c34)cc2F)ccn1)C1CCC1	0.0612	46	0.024	43.6	52.8		

Reference: ChEMBL document CHEMBL4373740, “Synthesis and biological evaluation of new MET inhibitors with 1,6-naphthyridinone scaffold” (Eur J Med Chem, 2020)
